Data reported in patent publication US8741807B2 (priority 2011, dated 2014).
Read-outs that look alike come from different tables or passages of the source.

System: rice blast fungus (Kyu89-246, MAFF101506, race 003.0)
Format: in vivo
Settings: inoculated next day, 6 days after inoculation, five-leaf stage

Structure (SMILES)	resistance to rice blast (number of lesions) (sprayed at 1 mM)	resistance to rice blast (number of lesions) (sprayed at 5 mM)
NCCCCNCCCNC(=O)CCCCCCCCCCCO [YIS12OH1N, 1-N-(12-hydroroxylauroyl)-spermidine]	provided the resistance	showed resistance to rice blast
NCCCCN(CCCN)C(=O)CCCCCCCCCCCO [YIS12OH4N, ^4N-(12-hydroroxylauroyl)-spermidine]	–	showed resistance to rice blast
